Test results from ChEMBL document CHEMBL3991601, “The target landscape of clinical kinase drugs” (Science, 2017).
Activity calls are given as the source filed them. Rule as the data show it, for most assays here: actives have a measured Kd and inactives only a lower limit.

Key:
[1] = biological target: T1, AarF domain-containing protein kinase 1 (Homo sapiens, UniProt Q86TW2)
T1 sequence (Q86TW2 whole entry): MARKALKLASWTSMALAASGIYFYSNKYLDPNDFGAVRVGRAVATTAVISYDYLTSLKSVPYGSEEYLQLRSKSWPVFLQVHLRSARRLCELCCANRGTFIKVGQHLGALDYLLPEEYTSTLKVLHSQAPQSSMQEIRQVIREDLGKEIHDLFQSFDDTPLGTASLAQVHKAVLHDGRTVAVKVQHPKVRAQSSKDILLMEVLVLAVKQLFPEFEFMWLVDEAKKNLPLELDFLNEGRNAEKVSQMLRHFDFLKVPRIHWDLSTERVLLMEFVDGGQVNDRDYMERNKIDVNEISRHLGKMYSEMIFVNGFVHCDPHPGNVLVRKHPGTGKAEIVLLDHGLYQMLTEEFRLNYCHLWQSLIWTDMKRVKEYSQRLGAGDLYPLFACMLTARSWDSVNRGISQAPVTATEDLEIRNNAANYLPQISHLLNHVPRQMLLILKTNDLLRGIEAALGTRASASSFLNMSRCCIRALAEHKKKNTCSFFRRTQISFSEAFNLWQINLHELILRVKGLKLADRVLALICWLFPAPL

[2] = biological target: T2, Dual specificity mitogen-activated protein kinase kinase 6 (Homo sapiens, UniProt P52564)
T2 sequence (P52564 whole entry): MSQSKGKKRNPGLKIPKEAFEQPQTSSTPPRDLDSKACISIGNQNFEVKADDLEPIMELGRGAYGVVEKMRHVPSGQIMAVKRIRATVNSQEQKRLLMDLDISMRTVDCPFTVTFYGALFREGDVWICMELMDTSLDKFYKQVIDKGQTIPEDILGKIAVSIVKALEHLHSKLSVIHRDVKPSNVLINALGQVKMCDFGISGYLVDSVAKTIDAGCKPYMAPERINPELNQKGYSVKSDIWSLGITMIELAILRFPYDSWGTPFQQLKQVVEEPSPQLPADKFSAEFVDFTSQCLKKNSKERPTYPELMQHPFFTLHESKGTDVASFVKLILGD

[3] = biological target: Calcium/calmodulin-dependent protein kinase kinase 2 (Homo sapiens, UniProt Q96RR4)
[4] = biological target: T3, Tyrosine--tRNA ligase, cytoplasmic (Homo sapiens, UniProt P54577)
T3 sequence (P54577 whole entry): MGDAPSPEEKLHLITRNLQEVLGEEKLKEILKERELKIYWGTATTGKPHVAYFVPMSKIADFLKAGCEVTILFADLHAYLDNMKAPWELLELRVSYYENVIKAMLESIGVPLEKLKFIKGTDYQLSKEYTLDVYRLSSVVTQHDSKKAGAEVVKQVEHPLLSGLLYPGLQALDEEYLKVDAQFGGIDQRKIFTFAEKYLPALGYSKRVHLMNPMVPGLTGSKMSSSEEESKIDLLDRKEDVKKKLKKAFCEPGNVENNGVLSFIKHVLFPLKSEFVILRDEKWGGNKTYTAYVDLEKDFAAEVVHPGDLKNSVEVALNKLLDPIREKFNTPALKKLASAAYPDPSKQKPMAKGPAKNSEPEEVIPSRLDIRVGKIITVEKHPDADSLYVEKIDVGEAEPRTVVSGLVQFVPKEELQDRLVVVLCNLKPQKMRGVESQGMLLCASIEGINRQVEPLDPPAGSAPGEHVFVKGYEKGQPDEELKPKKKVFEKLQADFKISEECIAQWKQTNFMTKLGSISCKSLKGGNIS

[5] = biological target: Cyclin-dependent kinase 7 (Homo sapiens, UniProt P50613)
Midasin = Midasin (Homo sapiens, UniProt Q9NU22)
[6] = biological target: T4, Ferrochelatase, mitochondrial (Homo sapiens, UniProt P22830)
T4 sequence (P22830 whole entry): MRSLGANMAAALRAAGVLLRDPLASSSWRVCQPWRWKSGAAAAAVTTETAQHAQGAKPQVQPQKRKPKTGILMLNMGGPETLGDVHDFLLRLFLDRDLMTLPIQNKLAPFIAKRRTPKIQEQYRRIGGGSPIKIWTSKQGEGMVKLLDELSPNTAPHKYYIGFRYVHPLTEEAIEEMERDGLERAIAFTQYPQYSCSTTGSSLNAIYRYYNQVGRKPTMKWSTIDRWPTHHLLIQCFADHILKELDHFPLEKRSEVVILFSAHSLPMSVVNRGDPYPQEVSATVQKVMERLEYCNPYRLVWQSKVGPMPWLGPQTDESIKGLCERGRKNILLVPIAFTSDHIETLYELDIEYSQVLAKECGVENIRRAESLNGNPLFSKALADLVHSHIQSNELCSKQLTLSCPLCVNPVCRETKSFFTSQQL

[7] = biological target: T5, Uncharacterized protein FLJ45252 (Homo sapiens, UniProt Q6ZSR9); conditions: read-out: Kd apparent; k-562, colo 205, sk-n-be(2) and mv-4-11
T5 sequence (Q6ZSR9 whole entry): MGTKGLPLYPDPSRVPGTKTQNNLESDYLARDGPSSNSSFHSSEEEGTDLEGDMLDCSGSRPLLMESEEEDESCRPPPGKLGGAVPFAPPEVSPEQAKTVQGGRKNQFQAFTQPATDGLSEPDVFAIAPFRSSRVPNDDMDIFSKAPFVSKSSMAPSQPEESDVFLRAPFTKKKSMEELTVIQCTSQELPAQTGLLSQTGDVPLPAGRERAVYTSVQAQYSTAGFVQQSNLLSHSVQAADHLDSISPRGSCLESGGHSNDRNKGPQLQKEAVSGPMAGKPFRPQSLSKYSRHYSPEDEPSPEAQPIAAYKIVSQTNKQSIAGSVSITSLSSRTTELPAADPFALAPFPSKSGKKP

[8] = biological target: Proto-oncogene tyrosine-protein kinase Src (Homo sapiens, UniProt P12931)
[9] = biological target: T6, Serine/threonine-protein kinase Nek2 (Homo sapiens, UniProt P51955)
T6 sequence (P51955 whole entry): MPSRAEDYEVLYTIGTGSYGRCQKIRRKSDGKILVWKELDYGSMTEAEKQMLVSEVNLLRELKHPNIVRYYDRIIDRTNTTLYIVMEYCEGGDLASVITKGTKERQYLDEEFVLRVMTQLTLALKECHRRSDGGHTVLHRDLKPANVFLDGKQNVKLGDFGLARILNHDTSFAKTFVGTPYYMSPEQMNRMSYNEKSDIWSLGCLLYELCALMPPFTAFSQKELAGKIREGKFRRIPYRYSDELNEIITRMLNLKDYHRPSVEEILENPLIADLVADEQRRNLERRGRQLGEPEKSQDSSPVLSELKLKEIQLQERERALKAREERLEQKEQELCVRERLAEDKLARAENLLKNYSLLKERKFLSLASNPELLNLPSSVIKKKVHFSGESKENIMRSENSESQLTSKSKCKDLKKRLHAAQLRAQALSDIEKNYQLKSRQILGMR
Also: in the data inactive means no Kd found up to 30 µM.

Sequence of Cyclin-dependent kinase 7 (P50613 whole entry): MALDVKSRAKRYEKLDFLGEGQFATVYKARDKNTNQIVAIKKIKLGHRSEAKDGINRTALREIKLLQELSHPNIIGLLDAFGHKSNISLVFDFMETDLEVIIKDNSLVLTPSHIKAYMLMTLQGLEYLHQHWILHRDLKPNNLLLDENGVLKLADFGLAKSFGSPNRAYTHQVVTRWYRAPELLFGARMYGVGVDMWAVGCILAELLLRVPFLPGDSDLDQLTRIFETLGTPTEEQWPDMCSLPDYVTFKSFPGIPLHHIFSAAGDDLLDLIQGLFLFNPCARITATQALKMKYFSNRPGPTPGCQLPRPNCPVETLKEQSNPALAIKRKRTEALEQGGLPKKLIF
Sequence of Calcium/calmodulin-dependent protein kinase kinase 2 (Q96RR4 whole entry): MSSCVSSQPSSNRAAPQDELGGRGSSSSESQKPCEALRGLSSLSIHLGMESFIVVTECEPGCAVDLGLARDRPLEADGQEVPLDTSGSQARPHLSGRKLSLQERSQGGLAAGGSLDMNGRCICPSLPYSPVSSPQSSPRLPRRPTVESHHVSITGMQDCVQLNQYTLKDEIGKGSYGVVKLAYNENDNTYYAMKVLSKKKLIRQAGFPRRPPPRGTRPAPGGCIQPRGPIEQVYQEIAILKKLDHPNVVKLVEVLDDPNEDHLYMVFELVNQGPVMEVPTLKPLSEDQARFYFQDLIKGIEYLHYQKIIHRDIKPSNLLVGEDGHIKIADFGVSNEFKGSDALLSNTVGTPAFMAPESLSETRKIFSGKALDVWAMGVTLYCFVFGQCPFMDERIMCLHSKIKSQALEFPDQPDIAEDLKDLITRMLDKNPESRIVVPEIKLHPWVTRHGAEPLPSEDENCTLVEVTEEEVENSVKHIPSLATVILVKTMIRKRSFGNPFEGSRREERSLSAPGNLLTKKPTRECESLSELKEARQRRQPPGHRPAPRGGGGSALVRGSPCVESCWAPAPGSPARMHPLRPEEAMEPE
Sequence of Proto-oncogene tyrosine-protein kinase Src (P12931 2-536 limits assumed): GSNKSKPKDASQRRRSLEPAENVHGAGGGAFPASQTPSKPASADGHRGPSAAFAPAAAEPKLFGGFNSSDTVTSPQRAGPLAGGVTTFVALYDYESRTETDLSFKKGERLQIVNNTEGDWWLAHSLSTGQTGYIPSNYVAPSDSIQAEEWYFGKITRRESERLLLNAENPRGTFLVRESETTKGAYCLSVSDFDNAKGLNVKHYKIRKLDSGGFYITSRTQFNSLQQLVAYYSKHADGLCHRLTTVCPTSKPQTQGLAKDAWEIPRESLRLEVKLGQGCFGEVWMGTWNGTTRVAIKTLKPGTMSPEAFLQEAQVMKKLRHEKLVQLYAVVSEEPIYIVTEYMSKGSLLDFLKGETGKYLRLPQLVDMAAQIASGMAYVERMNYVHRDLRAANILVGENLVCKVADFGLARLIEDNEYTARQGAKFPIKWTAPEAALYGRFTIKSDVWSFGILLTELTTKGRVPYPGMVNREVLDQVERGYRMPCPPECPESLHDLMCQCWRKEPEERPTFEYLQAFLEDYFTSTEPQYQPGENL

Kd [1]	Kd [2]	Kd [3]	Kd [4]	Kd [5]	Kd (Midasin)	Kd [6]	Kd [7]	Kd [8]	Kd [9]	Structure (SMILES)
0.545 µM (active)	> 30 µM (inactive)	52.8 µM (active)	> 30 µM (inactive)	> 30 µM (inactive)	> 30 µM (inactive)	0.783 µM (active)	0.007 µM (active)			Cc1nc(N)sc1-c1ccnc(Nc2ccc(N3CCOCC3)cc2)n1 [CYC-116]
> 30 µM (inactive)	> 30 µM (inactive)	> 30 µM (inactive)	> 30 µM (inactive)		> 30 µM (inactive)	> 30 µM (inactive)		> 30 µM (inactive)		CCc1cnn2c(NCc3ccc[n+]([O-])c3)cc(N3CCCC[C@H]3CCO)nc12 [DINACICLIB]
> 30 µM (inactive)			> 30 µM (inactive)		> 30 µM (inactive)	> 30 µM (inactive)	0.104 µM (active)			CN1CCN(c2ccc3nc(-c4c(N)c5c(F)cccc5[nH]c4=O)[nH]c3c2)CC1 [DOVITINIB]
> 30 µM (inactive)	> 30 µM (inactive)	> 30 µM (inactive)	> 30 µM (inactive)		> 30 µM (inactive)	> 30 µM (inactive)	> 30 µM (inactive)			Cc1cc(Nc2cc(N3CCN(C)CC3)nc(/C=C/c3ccccc3)n2)n[nH]1 [ENMD-2076]
> 30 µM (inactive)	> 30 µM (inactive)	> 30 µM (inactive)	> 30 µM (inactive)	> 30 µM (inactive)	> 30 µM (inactive)	> 30 µM (inactive)	> 30 µM (inactive)		> 30 µM (inactive)	COCCNCc1ccc(-c2cc3nccc(Oc4ccc(NC(=S)NC(=O)Cc5ccc(F)cc5)cc4F)c3s2)nc1 [GLESATINIB]
> 30 µM (inactive)			> 30 µM (inactive)		> 30 µM (inactive)	2.7 µM (active)	> 30 µM (inactive)			CCn1c(-c2nonc2N)nc2c(C#CC(C)(C)O)ncc(OC[C@H]3CCCNC3)c21 [GSK-690693]
> 30 µM (inactive)	> 30 µM (inactive)	> 30 µM (inactive)	> 30 µM (inactive)	> 30 µM (inactive)	> 30 µM (inactive)	2.81 µM (active)	> 30 µM (inactive)		> 30 µM (inactive)	COc1cc2nccc(Oc3ccc(NC(=O)NC4CC4)c(Cl)c3)c2cc1C(N)=O [LENVATINIB]
> 30 µM (inactive)	> 30 µM (inactive)	> 30 µM (inactive)	> 30 µM (inactive)		> 30 µM (inactive)	> 30 µM (inactive)	> 30 µM (inactive)	> 30 µM (inactive)		OCCn1cc(-c2cnc3nnn(Cc4ccc5ncccc5c4)c3n2)cn1 [PF-04217903]
> 30 µM (inactive)	> 30 µM (inactive)	> 30 µM (inactive)	> 30 µM (inactive)	> 30 µM (inactive)	> 30 µM (inactive)	> 30 µM (inactive)	> 30 µM (inactive)	> 30 µM (inactive)		C[C@@H](c1ccc2nccn2c1)n1nnc2ncc(-c3cnn(C)c3)nc21 [SAVOLITINIB]
> 30 µM (inactive)			> 30 µM (inactive)		> 30 µM (inactive)	> 30 µM (inactive)	3.01 µM (active)			Nc1nc(N)c2nc(-c3cccc(O)c3)c(-c3cccc(O)c3)nc2n1 [TG100-115]
> 30 µM (inactive)	> 30 µM (inactive)	> 30 µM (inactive)	> 30 µM (inactive)	> 30 µM (inactive)	> 30 µM (inactive)	> 30 µM (inactive)	> 30 µM (inactive)		> 30 µM (inactive)	COc1cc2nccc(Oc3ccc(NC(=O)Nc4cc(C)on4)c(Cl)c3)c2cc1OC [TIVOZANIB]

Structure (SMILES)	Kd [1]	Kd [2]	Kd [3]	Kd [4]	Kd [5]	Kd (Midasin)	Kd [6]	Kd [7]	Kd [8]	Kd [9]
Cc1cn(-c2cc(NC(=O)c3ccc(C)c(Nc4nccc(-c5cccnc5)n4)c3)cc(C(F)(F)F)c2)cn1 [NILOTINIB]	> 30 µM (inactive)			> 30 µM (inactive)		> 30 µM (inactive)		> 30 µM (inactive)		
O=C(Nc1cccc(Cl)c1)Nc1ncc(CCNc2ncnc3ccsc23)s1 [SNS-314]	> 30 µM (inactive)	> 30 µM (inactive)	> 30 µM (inactive)	> 30 µM (inactive)		> 30 µM (inactive)	> 30 µM (inactive)	> 30 µM (inactive)		
